From US9777015B2, “Useful thiophene derivatives in the treatment of diabetes” (METABRAIN RESEARCH, priority 2012, dated 2017)

System: hepatocytes isolated from Wistar rat liver
Assay: Test of inhibition of hepatic production of glucose (isolated hepatocytes, 3 h or 20 h incubation)
Format: cell-based
Conditions: 3 h incubation; for activity at 50 µM / activity at 100 µM: Rattus norvegicus, Hepatocyte, 3 h; for activity at 50 µM: read-out: HGP % of ctrl @ 50 μM; for activity at 100 µM: read-out: HGP % of ctrl @ 100 μM; for inhibition of hepatic production of glucose: with two doses
Method: The hepatocytes are isolated from Wistar rat liver having fasted for 24 h after perfusion of collagenase in the portal vein. The freshly isolated hepatocytes are sown in 6-well plates coated with collagen and containing an adhesion medium (Williams Medium). After adhesion, the medium is replaced with RPMI 1640 medium without any glucose, containing hydrocortisone (7.10^−5M) for a duration from 16 to 18 h. The next day, the glucose hepatic production test is conducted in a Krebs medium for 3 h. The basal conditions are cells incubated with only Krebs, the stimulated conditions are the cells placed in Krebs+lactate+pyruvate, the produced conditions are the cells exposed to chemical compounds in a Krebs/lactate/pyruvate medium. In the case when the compounds are dissolved in DMSO, all the conditions of the tests are met in the presence of a final concentration of 0.1% DMSO. The positive control of the test is the mercaptopicolinate known for its inhibitory action on hepatic production of glucose via the phosphoenolpyruvate carboxykinase. For short term treatments, the compounds are incubated for 3 h. For long term treatments, the compounds are incubated for 20 h at the moment when the hepatocytes are cultivated in RPMI and then added during the hepatic production test for 3 h. At the end of the 3 hours of incubation, the supernatant is recovered for measurement of glucose with a colorimetric method using glucose oxidase. The cells are lysed with a 0.1% NaOH aqueous solution in order to measure the amount of protein with the Lowry method. The results are expressed in mmols of glucose per mg of protein.

[1] = hepatic glucose production, rat hepatocytes, compound at 50 μM
[2] = hepatic glucose production, rat hepatocytes, compound at 100 μM

SMILES	activity at 50 µM [1] [%]	activity at 100 µM [2] [%]	inhibition of hepatic production of glucose	HGP % of ctrl @ 50 μM [1]	HGP % of ctrl @ 100 μM [2]
COC(=O)Cc1cc(C(=O)c2cccc(Cl)c2)sc1-c1ccccc1 [compound 2, methyl 2-(5-(3-chlorobenzoyl)-2-phenylthiophen-3-yl)acetate]	83	62	–	–	–
COC(=O)Cc1cc(C(=O)c2cccc(OC)c2)sc1-c1ccccc1 [compound 4, methyl 2-(5-(3-methoxybenzoyl)-2-phenylthiophen-3-yl)acetate]	77	75	–	–	–
COC(=O)Cc1cc(C(=O)c2ccc(OC)cc2)sc1-c1ccccc1 [compound 5, methyl 2-(5-(4-methoxybenzoyl)-2-phenylthiophen-3-yl)acetate]	68	50	–	–	–
COC(=O)Cc1cc(C(=O)C2CCCCC2)sc1-c1ccccc1 [compound 6, methyl 2-(5-(cyclohexanecarbonyl)-2-phenylthiophen-3-yl)acetate]	72	55	–	–	–
COC(=O)Cc1cc(C(=O)c2ccccc2)sc1-c1ccccc1 [compound 7, methyl 2-(5-benzoyl-2-phenyl-thiophen-3-yl)acetate]	84	70	–	–	–
CCOC(=O)Cc1cc(C(=O)c2cccc(OC)c2)sc1-c1ccc(Cl)cc1 [compound 12, ethyl 2-(2-(4-chlorophenyl)-5-(3-methoxybenzoyl)thiophen-3-yl)acetate]	70	53	–	–	–
CCOC(=O)Cc1cc(C(=O)Cc2ccccc2)sc1-c1ccc(Cl)cc1 [compound 16, ethyl 2-(2-(4-chlorophenyl)-5-(2-phenylacetyl)thiophen-3-yl)acetate]	69	63	–	–	–
CCOC(=O)Cc1cc(C(=O)CCc2ccccc2)sc1-c1ccc(Cl)cc1 [compound 17, ethyl 2-(2-(4-chlorophenyl)-5-(3-phenylpropanoyl)thiophen-3-yl)acetate]	76	73	–	–	–
CCOC(=O)Cc1cc(C(=O)c2ccccc2OC)sc1-c1ccc(OC)cc1 [compound 23, ethyl 2-(5-(2-methoxybenzoyl)-2-(4-methoxyphenyl)thiophen-3-yl)acetate]	79	73	–	–	–
CCOC(=O)Cc1cc(C(=O)c2cccc(F)c2)sc1-c1ccc(OC)cc1 [compound 26, ethyl 2-(5-(3-fluorobenzoyl)-2-(4-methoxyphenyl)thiophen-3-yl)acetate]	86	71	–	–	–
CCOC(=O)Cc1cc(C(=O)CCc2ccccc2)sc1-c1ccc(OC)cc1 [compound 38, ethyl 2-(2-(4-methoxyphenyl)-5-(3-phenylpropanoyl)thiophen-3-yl)acetate]	74	70	–	–	–
COc1ccc(C(=O)c2cc(CC(=O)OC(C)C)c(-c3ccc(Cl)cc3)s2)cc1 [compound 43, isopropyl 2-(2-(4-chlorophenyl)-5-(4-methoxybenzoyl)thiophen-3-yl)acetate]	82	73	–	–	–
COc1ccc(C(=O)c2cc(CC(=O)O)c(-c3ccc(OC)cc3)s2)cc1 [compound 45, 2-(5-(4-methoxybenzoyl)-2-(4-methoxyphenyl)thiophen-3-yl)acetic acid]	82	73	–	–	–
COc1ccc(-c2sc(C(=O)C3CCCCC3)cc2CC(=O)O)cc1 [compound 46, 2-(5-(cyclohexanecarbonyl)-2-(4-methoxyphenyl)thiophen-3-yl)acetic acid]	74	55	–	–	–
O=C(O)Cc1cc(C(=O)c2ccco2)sc1-c1ccccc1 [compound 48, 2-(5-(furan-2-carbonyl)-2-phenyl-thiophen-3-yl)acetic acid]	91	73	–	–	–
O=C(O)Cc1cc(C(=O)c2cccc(Cl)c2)sc1-c1ccccc1 [compound 49, 2-(5-(3-chlorobenzoyl)-2-phenyl-thiophen-3-yl)acetic acid]	57	38	strongest inhibitions	–	–
COc1cccc(C(=O)c2cc(CC(=O)O)c(-c3ccccc3)s2)c1 [compound 50, 2-(5-(3-methoxybenzoyl)-2-phenylthiophen-3-yl)acetic acid]	97	75	–	–	–

SMILES	activity at 50 µM [1] [%]	activity at 100 µM [2] [%]	inhibition of hepatic production of glucose	HGP % of ctrl @ 50 μM [1]	HGP % of ctrl @ 100 μM [2]
COc1ccc(C(=O)c2cc(CC(=O)O)c(-c3ccccc3)s2)cc1 [compound 51, 2-(5-(4-methoxybenzoyl)-2-phenylthiophen-3-yl)acetic acid]	90	54	–	–	–
O=C(O)Cc1cc(C(=O)Cc2ccc(F)cc2)sc1-c1ccccc1 [compound 54, 2-(5-(2-(4-fluorophenyl)acetyl)-2-phenylthiophen-3-yl)acetic acid]	85	74	–	–	–
O=C(O)Cc1cc(C(=O)c2ccc(Cl)c(Cl)c2)sc1-c1ccc(Cl)cc1 [compound 57, 2-(2-(4-chlorophenyl)-5-(3,4-dichlorobenzoyl)thiophen-3-yl)acetic acid]	77	51	–	–	–
O=C(O)Cc1cc(C(=O)c2cccc(Cl)c2)sc1-c1ccc(Cl)cc1 [compound 58, 2-(5-(3-chlorobenzoyl)-2-(4-chlorophenyl)thiophen-3-yl)acetic acid]	51	25	strongest inhibitions	–	–
COc1cccc(C(=O)c2cc(CC(=O)O)c(-c3ccc(Cl)cc3)s2)c1 [compound 59, 2-(2-(4-chlorophenyl)-5-(3-methoxybenzoyl)thiophen-3-yl) acetic acid]	67	35	–	–	–
COc1ccc(C(=O)c2cc(CC(=O)O)c(-c3ccc(Cl)cc3)s2)cc1 [compound 60, 2-(2-(4-chlorophenyl)-5-(4-methoxybenzoyl)thiophen-3-yl) acetic acid]	74	53	–	–	–
O=C(O)Cc1cc(C(=O)C2CCCCC2)sc1-c1ccc(Cl)cc1 [compound 61, 2-(2-(4-chlorophenyl)-5-(cyclohexanecarbonyl)thiophen-3-yl)acetic acid]	78	66	–	–	–
O=C(O)Cc1cc(C(=O)CCc2ccccc2)sc1-c1ccc(Cl)cc1 [compound 63, 2-(2-(4-chlorophenyl)-5-(3-phenylpropanoyl)thiophen-3-yl) acetic acid]	56	28	strongest inhibitions	–	–
COc1ccc(-c2sc(C(=O)c3ccc(F)cc3F)cc2CC(=O)O)cc1 [compound 65, 2-(5-(2,4-difluorobenzoyl)-2-(4-methoxyphenyl)thiophen-3-yl)acetic acid]	93	66	–	–	–
COc1ccc(-c2sc(C(=O)c3ccccc3OC)cc2CC(=O)O)cc1 [compound 69, 2-(5-(2-methoxybenzoyl)-2-(4-methoxyphenyl)thiophen-3-yl)acetic acid]	86	60	–	–	–
COc1ccc(-c2sc(C(=O)CCc3ccccc3)cc2CC(=O)O)cc1 [compound 80, 2-(2-(4-methoxyphenyl)-5-(3-phenylpropanoyl)thiophen-3-yl)ace acetic acid]	83	67	–	–	–
COc1ccc(C(=O)c2cc(CC(=O)O)c(-c3ccc(Cl)c(Cl)c3)s2)cc1 [compound 81, 2-(2-(3,4-dichlorophenyl)-5-(4-methoxybenzoyl)thiophen-3-yl) acetic acid]	106	54	–	–	–
O=C([O-])Cc1cc(C(=O)c2ccco2)sc1-c1ccc(Cl)cc1.[Na+] [compound 82, sodium 2-(2-(4-chlorophenyl)-5-(furan-2-carbonyl)thiophen-3-yl)acetate]	–	–	–	67 % of ctrl	26 % of ctrl
COc1ccc(C(=O)c2cc(CC(N)=O)c(-c3ccc(Cl)cc3)s2)cc1 [compound 86, 2-(2-(4-chlorophenyl)-5-(4-methoxybenzoyl)thiophen-3-yl)acetamide]	77	72	–	–	–
CCOC(=O)CN(C)C(=O)Cc1cc(C(=O)c2ccc(OC)cc2)sc1-c1ccccc1 [compound 87, ethyl 2-(2-(5-(4-methoxybenzoyl)-2-phenylthiophen-3-yl)-N-methylacetamido)acetate]	77	73	–	–	–
CCONC(=O)Cc1cc(C(=O)c2ccco2)sc1-c1ccc(Cl)cc1 [compound 98, 2-(2-(4-chlorophenyl)-5-(furan-2-carbonyl)thiophen-3-yl)-N-ethoxyacetamide]	88	74	–	–	–
